Experimental data taken from patent US20040038855A1 (priority 1999, published 2004).
Where two headings read alike, the source gives them in different places.

Legend:
[1] = biological target: T1, human Histamine H1 receptor (Homo sapiens, UniProt P35367); assay: Binding affinity at the human histamine H1 receptor; settings: Table 3c; read-out: hH1 Ki
T1 construct: expressed in transfected cells
Excerpt: (§1) Other receptors: Cell membranes expressing human dopamine D1, D2, D4 and rat D3 receptors were purchased through BioSignal, Inc. (Montreal, Canada). Binding assays using the histamine H1 receptor; dopamine receptors; and α1A, α1B, and α2 adrenergic receptors may be carried out according to the procedures described in U.S. Pat. No. 5,780,485, the disclosure of which is hereby incorporated by reference in its entirety into this application. Binding assays using the dopamine D5 receptor may be carried out according to the procedures described in U.S. Pat. No. 5,882,855, the disclosure of which is hereby incorporated by reference in its entirety into this application. Binding assays for the human α1D adrenergic receptor may be carried out according to the procedures described in U.S. Pat. No. 6,156,518, the disclosure of which is hereby incorporated by reference in its entirety into this application.

rat MCH1 receptor = biological target: T2, rat MCH1 receptor (Rattus norvegicus, UniProt P97639); assay: Binding affinity (Ki) at the rat MCH1 receptor
T2 construct: expressed in transfected cells
T2 sequence (P97639 whole entry): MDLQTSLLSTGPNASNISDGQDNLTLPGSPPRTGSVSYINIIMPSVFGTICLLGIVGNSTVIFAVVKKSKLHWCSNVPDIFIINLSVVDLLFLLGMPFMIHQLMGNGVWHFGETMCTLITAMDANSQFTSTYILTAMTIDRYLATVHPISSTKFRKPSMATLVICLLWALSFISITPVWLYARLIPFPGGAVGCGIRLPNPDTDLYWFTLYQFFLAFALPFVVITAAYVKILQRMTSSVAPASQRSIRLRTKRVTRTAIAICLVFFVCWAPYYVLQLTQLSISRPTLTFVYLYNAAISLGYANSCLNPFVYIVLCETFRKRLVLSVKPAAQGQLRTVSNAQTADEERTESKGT
Method: For binding assays, pellets of transfected cells are suspended in ice-cold buffer (20 mM Tris.HCl, 5 mM EDTA, pH 7.4) and homogenized by sonication for 7 sec. The cell lysates are centrifuged at 200×g for 5 min at 4° C. The supernatants are then centrifuged at 40,000×g for 20 min at 4° C. The resulting pellets are washed once in the homogenization buffer and suspended in binding buffer (see methods for radioligand binding). Protein concentrations are determined by the method of Bradford (1976) using bovine serum albumin as the standard. Binding assays are usually performed immediately, however it is possible to prepare membranes in batch and store frozen in liquid nitrogen for future use.
Binding is performed at 25° C. for 1 hr. Incubations are terminated by rapid vacuum filtration over GF/C glass fiber filters, presoaked in 5% PEI using 50 mM Tris pH 7.4 containing 0.01% triton X-100 as wash buffer.
A methanolic solution of methyl (4S)-3-({[3-(4-[3-(acetylamino)phenyl]-3,6-dihydro-1(2H)pyridinyl)propyl]amino}carbonyl)-4-(3,4-difluorophenyl)-6-(methoxymethyl)-2-oxo-1,2,3,4-tetrahydro-5-pyrimidinecarboxylate was exposed to tritium gas at 1 atmosphere pressure in the presence of 5% palladium on carbon with stirring overnight to give the tritiated methyl (4S)-3-{[(3-{4-[3-(acetylamino)phenyl]-1-piperidinyl}propyl)amino]carbonyl}-4-(3,4-difluorophenyl)-6-(methoxymethyl)-2-oxo-1,2,3,4-tetrahydro-5-pyrimidinecarboxylate ((+)-isomer) After purification by reverse phase HPLC (Hypersil ODS, 4.6×100 mm, methanol:H2O:Et3N 10:90:1 to 100:0:1 in 15 min at 1.0 mL/min, with radiochemical and UV detection), this product was used as a radioligand in the MCH1 binding assays. The same procedure was carried out with H2 gas in place of ^3H2 to afford the non-radioactive version of Compound 10.

[2] = biological target: T3, human Alpha-1a Adrenergic receptor (Homo sapiens, UniProt P35348); assay: Binding affinity at the human alpha-1A adrenergic receptor; settings: Table 3c; read-out: hAlpha-1a Ki
T3 construct: expressed in transfected cells
T3 sequence (P35348 1-466): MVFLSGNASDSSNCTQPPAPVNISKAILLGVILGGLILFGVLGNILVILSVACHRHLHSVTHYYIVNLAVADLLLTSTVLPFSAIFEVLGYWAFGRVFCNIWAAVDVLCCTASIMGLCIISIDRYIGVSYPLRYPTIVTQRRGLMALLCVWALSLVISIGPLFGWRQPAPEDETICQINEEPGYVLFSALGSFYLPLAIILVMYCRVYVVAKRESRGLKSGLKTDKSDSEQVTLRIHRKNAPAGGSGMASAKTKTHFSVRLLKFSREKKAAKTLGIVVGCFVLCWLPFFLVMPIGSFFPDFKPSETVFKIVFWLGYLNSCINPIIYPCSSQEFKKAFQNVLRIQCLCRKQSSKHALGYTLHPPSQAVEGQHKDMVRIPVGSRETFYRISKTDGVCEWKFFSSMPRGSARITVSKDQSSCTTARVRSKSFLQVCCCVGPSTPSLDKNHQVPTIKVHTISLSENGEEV
Excerpt: as §1

[3] = biological target: T4, human Dopamine D2 receptor (Homo sapiens, UniProt P14416); assay: Binding affinity at the human dopamine D2 receptor; settings: Table 3c; read-out: hD2 Ki
T4 construct: purchased BioSignal, Inc. (Montreal, Canada)
T4 sequence (P14416 whole entry): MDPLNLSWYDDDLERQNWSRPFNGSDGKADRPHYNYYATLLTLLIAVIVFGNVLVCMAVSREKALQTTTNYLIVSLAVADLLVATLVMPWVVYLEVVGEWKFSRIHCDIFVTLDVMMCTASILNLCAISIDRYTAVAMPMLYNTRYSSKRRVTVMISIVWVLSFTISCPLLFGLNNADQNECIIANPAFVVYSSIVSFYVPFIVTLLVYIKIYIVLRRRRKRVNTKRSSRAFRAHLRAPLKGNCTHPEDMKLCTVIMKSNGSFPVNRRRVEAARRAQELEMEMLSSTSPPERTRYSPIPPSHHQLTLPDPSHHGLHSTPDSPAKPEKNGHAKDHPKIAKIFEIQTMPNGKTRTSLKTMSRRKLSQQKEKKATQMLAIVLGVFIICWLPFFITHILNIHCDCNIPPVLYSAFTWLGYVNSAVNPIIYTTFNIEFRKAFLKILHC
Excerpt: as §1

[4] = Examples 38-141, read-out: Ki (nM) rMCH1

T1 sequence (P35367 whole entry): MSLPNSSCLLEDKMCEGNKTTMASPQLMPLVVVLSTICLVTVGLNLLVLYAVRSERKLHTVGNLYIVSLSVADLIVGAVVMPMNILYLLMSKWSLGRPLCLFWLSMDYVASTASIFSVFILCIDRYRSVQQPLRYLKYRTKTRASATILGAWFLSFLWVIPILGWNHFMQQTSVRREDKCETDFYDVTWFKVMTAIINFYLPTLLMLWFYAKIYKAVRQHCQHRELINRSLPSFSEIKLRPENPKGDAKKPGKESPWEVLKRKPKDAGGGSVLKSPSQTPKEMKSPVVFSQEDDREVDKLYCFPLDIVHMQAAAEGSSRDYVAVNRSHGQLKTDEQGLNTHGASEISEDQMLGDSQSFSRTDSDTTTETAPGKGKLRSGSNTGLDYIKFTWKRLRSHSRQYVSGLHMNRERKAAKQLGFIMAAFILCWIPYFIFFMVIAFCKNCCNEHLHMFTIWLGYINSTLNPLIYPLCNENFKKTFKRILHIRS

SMILES	Ki [1] [µM]	Ki (rat MCH1 receptor; [4]) [nM]	Ki (rat MCH1 receptor; Table 3c, read-out: rMCH1 Ki) [nM]	Ki [2] [nM]	Ki [3] [µM]
COCC(=O)Nc1cccc(C2CCN(CCCNC(=O)N3C(=O)NC(COC)=C(C(=O)OC)[C@@H]3c3ccc(F)c(F)c3)CC2)c1 [Example 39, METHYL (4S)-4-(3,4-DIFLUOROPHENYL)-3-({[3-(4-{3-[(METHOXYACETYL)AMINO]PHENYL}-1-PIPERIDINYL)PROPYL]AMINO}CARBONYL)-6-(METHOXYMETHYL)-2-OXO-1,2,3,4-TETRAHYDRO-5-PYRIMIDINECARBOXYLATE]	5.66	3.33	3.33	25.5	25.1
COCC1=C(C(=O)OC)[C@H](c2ccc(F)c(F)c2)N(C(=O)NCCCN2CCC(c3cccc(NC(=O)CC(C)C)c3)CC2)C(=O)N1 [Example 42, METHYL (4S)-4-(3,4-DIFLUOROPHENYL)-6-(METHOXYMETHYL)-3-({[3-(4-{3-[(3-METHYLBUTANOYL)AMINO]PHENYL}-1-PIPERIDINYL)PROPYL]AMINO}CARBONYL)-2-OXO-1,2,3,4-TETRAHYDRO-5-PYRIMIDINECARBOXYLATE]	7.8	0.6	0.6	10.9	3.27
CCCC(=O)Nc1cccc(C2CCN(CCCNC(=O)N3C(=O)NC(COC)=C(C(=O)OC)[C@@H]3c3ccc(F)c(F)c3)CC2)c1 [Example 44, METHYL (4S)-3-{[(3-{4-[3-(BUTYRYLAMINO)PHENYL]-1-PIPERIDINYL}PROPYL)AMINO]CARBONYL}-4-(3,4-DIFLUOROPHENYL)-6-(METHOXYMETHYL)-2-OXO-1,2,3,4-TETRAHYDRO-5-PYRIMIDINECARBOXYLATE]	2.59	0.09	0.09	11.4	3.61
CCCC(=O)Nc1cccc(C2CCN(CCCNC(=O)C3=C(COC)NC(=O)N[C@@H]3c3ccc(F)c(F)c3)CC2)c1 [Example 45]	4.43	14.7	14.7	6030	> 50
COCC1=C(C(=O)NCCCN2CCC(c3cccc(NC(=O)CC(C)C)c3)CC2)[C@@H](c2ccc(F)c(F)c2)NC(=O)N1 [Example 47]	3.25	34.3	34.3	553	13.5
CCC(C)C(=O)Nc1cccc(C2CCN(CCCNC(=O)C3=C(COC)NC(=O)N[C@@H]3c3ccc(F)c(F)c3)CC2)c1 (stereo partly shown) [Example 48]	7.77	22.1	22.1	16600	> 50
COC(=O)C1=C(C)N=C(SCc2ccc(OC)cc2)N(C(=O)NCCCN2CCC(c3cccc(NC(C)=O)c3)CC2)C1c1ccc([N+](=O)[O-])cc1 (stereo not shown) [Example 54, METHYL 1-{[(3-{4-[3-(ACETYLAMINO)PHENYL]-1-PIPERIDINYL}PROPYL)AMINO]CARBONYL}-2-[(4-METHOXYBENZYL)SULFANYL]-4-METHYL-6-(4-NITROPHENYL)-1,6-DIHYDRO-5-PYRIMIDINECARBOXYLATE]	11.4	29.9	29.9	11100	23
COC(=O)C1=C(C)NC(=O)N(C(=O)NCCCN2CCC(c3cccc(NC(C)=O)c3)CC2)[C@H]1c1ccc(F)c(F)c1 [Example 56, METHYL (4S)-3-{[(3-{4[3-(ACETYLAMINO)PHENYL]-1-PIPERIDINYL}PROPYL)AMINO]CARBONYL}-4-(3,4-DIFLUOROPHENYL)-6-METHYL-2-OXO-1,2,3,4-TETRAHYDRO-5-PYRIMIDINECARBOXYLATE]	7.23	0.26	0.26	305	10.4
CC(=O)Nc1cccc(C2CCN(CCCC(=O)c3ccc(C)c(C)c3)CC2)c1 [Example 57]	0.823	90	90	49	6.09
COc1cccc(CC(=O)Nc2cccc(C3CCN(CCCC(=O)c4ccc(C)c(C)c4)CC3)c2)c1 [Example 61]	1.62	14.2	14.2	9.1	1.14
CC(=O)Nc1cccc(C2CCN(CCCC(=O)c3ccc(Cl)cc3)CC2)c1 [Example 65]	1.73	69	69	26.4	1.43
O=C(Cc1ccccc1)Nc1cccc(C2CCN(CCCC(=O)c3ccc(Cl)cc3)CC2)c1 [Example 68]	0.571	84	84	57	0.771

More lines, in order of falling Ki [1], values ahead:

Ki [1] [µM]	Ki (rat MCH1 receptor; [4]) [nM]	Ki (rat MCH1 receptor; Table 3c, read-out: rMCH1 Ki) [nM]	Ki [2] [nM]	Ki [3] [µM]	SMILES
10.4	50.8	50.8	2310	3.45	CC(=O)Nc1cccc(C2CCN(CCCNC(=O)N3C(=O)NC4=C(C(=O)OC4)C3c3ccc4c(c3)OCO4)CC2)c1 (stereo not shown) [Example 53]
7.47	13.7	13.7	10400	19.8	COCC1=C(C(=O)NCCCN2CCC(c3cccc(NC(=O)C(C)C)c3)CC2)[C@@H](c2ccc(F)c(F)c2)NC(=O)N1 [Example 50]
7.12	2.72	2.72	8.72	2.65	COCC1=C(C(=O)OC)[C@H](c2ccc(F)c(F)c2)N(C(=O)NCCCN2CCC(c3cccc(NC(=O)CC(C)(C)C)c3)CC2)C(=O)N1 [Example 40, METHYL (4S)-4-(3,4-DIFLUOROPHENYL)-3-({[3-(4-{3-[(3,3-DIMETHYLBUTANOYL)AMINO]PHENYL}-1-PIPERIDINYL)PROPYL]AMINO}CARBONYL)-6-(METHOXYMETHYL)-2-OXO-1,2,3,4-TETRAHYDRO-5-PYRIMIDINECARBOXYLATE]
4.54	0.04	0.04	14.3	9.61	CCC(=O)Nc1cccc(C2CCN(CCCNC(=O)N3C(=O)NC(COC)=C(C(=O)OC)[C@@H]3c3ccc(F)c(F)c3)CC2)c1 [Example 41, METHYL (4S)-4-(3,4-DIFLUOROPHENYL)-6-(METHOXYMETHYL)-2-OXO-3-{[(3-{4-[3-(PROPIONYLAMINO)PHENYL]-1-PIPERIDINYL)PROPYL)AMINO]CARBONYL}-1,2,3,4-TETRAHYDRO-5-PYRIMIDINECARBOXYLATE]
2.87	8.16	8.16	2420	> 50	CCC(=O)Nc1cccc(C2CCN(CCCNC(=O)C3=C(COC)NC(=O)N[C@@H]3c3ccc(F)c(F)c3)CC2)c1 [Example 46]
2.28	52	52	284	5.18	COc1ccc(C(=O)CCCN2CCC(c3cccc(NC(=O)C(C)C)c3)CC2)c(OC)c1 [Example 78]
1.43	0.81	0.81	200	0.166	CCC1=C(C(=O)OCc2ccccc2)C(c2ccc(F)cc2F)N(C(=O)NCCCN2CCC(c3cccc(NC(C)=O)c3)CC2)C(=O)N1 (stereo not shown) [Example 52, BENZYL 3-{[(3-{4-[3-(ACETYLAMINO)PHENYL]-1-PIPERIDINYL}PROPYL)AMINO]CARBONYL}-4-(2,4-DIFLUOROPHENYL)-6-ETHYL-2-OXO-1,2,3,4-TETRAHYDRO-5-PYRIMIDINECARBOXYLATE]
1.23	0.79	0.79	10.1	6.64	CC(=O)Nc1cccc(C2CCN(CCCNC(=O)N3C(=O)NC(C)=C(C(C)=O)C3c3cc(F)c(F)c(F)c3)CC2)c1 (stereo not shown) [Example 51]
